Source: PubChem BioAssay (NCI)
Where “and” joins values, the source holds several entries; their conditions need not be identical. Equal values may be shown once.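 Tested at 5 concentrations; 48 h exposure; 96-well plates; endpoints linearly interpolated, else capped at highest concentration. The concentration for 50% growth inhibition is given as GI50. TGI denotes the concentration required for complete inhibition of growth.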

What was measured:
Experiment in all cases: NCI anticancer screen, dose series, 48 h
[1] = test system: COLO 205 colon
[2] = test system: HOP-92 NSCLC
[3] = test system: IGROV1 ovarian
[4] = test system: NCI-H460 lung
[5] = test system: NCI/ADR-RES ovarian
[6] = test system: PC-3 prostate
[7] = test system: SF-268 CNS
[8] = test system: SK-MEL-28 melanoma
[9] = test system: UACC-257 melanoma
[10] = test system: UACC-62 melanoma

CCCCCCCCCC[C@@H](O)[C@H]1CC[C@H]([C@H]2CC[C@H]([C@H](O)CCCCCCCCCC[C@@H]3CC(CC(C)=O)C(=O)O3)O2)O1 (stereo partly specified)
GI50 [1]: 6.71 µM | TGI [1]: > 29.5 µM | GI50 [2]: 2.41 µM | TGI [2]: 8.42 µM and > 50 µM | TGI [3]: > 50 µM | TGI [4]: > 50 µM | GI50 [5]: 0.377 µM | GI50 [6]: 5.3 µM | TGI [6]: > 50 µM | GI50 [7]: 4.95 µM | TGI [7]: > 50 µM | GI50 [8]: 5.26 µM | TGI [8]: > 50 µM | TGI [9]: > 50 µM | GI50 [10]: 14.9 µM | TGI [10]: > 50 µM

Cc1ccc(-c2cc(N)n(-c3nc4c([nH]3)c(=O)n(C)c(=O)n4C)n2)cc1
TGI [1]: 21.8 µM | TGI [2]: 32.2 µM | TGI [3]: 18.3 µM | TGI [4]: 18.4 µM | TGI [5]: 7.81 µM | TGI [6]: > 100 µM | TGI [7]: 34.5 µM | TGI [8]: 94.8 µM | TGI [9]: 82.3 µM | TGI [10]: 22.7 µM

Nc1nc2ncc(SCc3ccc(C(=O)NC(CCC(=O)O)C(=O)O)cc3)cc2c(=O)[nH]1 (stereo unspecified)
TGI [1]: > 100 µM | TGI [2]: > 100 µM | TGI [3]: > 100 µM | TGI [4]: > 100 µM | TGI [5]: > 100 µM | TGI [6]: > 100 µM | TGI [7]: > 100 µM | TGI [8]: > 100 µM | TGI [9]: > 100 µM | TGI [10]: > 100 µM

c1cc2nnc1SCCSCCSc1ccc(nn1)SCCSCCS2
TGI [1]: > 100 µM | TGI [2]: > 100 µM | TGI [3]: > 100 µM | TGI [4]: > 100 µM | TGI [5]: > 100 µM | TGI [6]: > 100 µM | TGI [7]: > 100 µM | TGI [8]: > 100 µM | TGI [9]: > 100 µM | TGI [10]: > 100 µM

CCOC(=O)c1cc2c([N+](=O)[O-])c(NC(C)=O)ccc2s1
TGI [1]: > 100 µM | TGI [2]: > 100 µM | TGI [3]: > 100 µM | TGI [4]: > 100 µM | TGI [5]: > 100 µM | TGI [6]: > 100 µM | TGI [7]: > 100 µM | TGI [8]: > 100 µM | TGI [9]: > 100 µM | TGI [10]: > 100 µM

COC(=O)C1(Cc2ccccc2)Cc2cc3c(cc2C1=O)CCC3 (stereo unspecified)
TGI [1]: 39.5 µM | TGI [2]: 42.3 µM | TGI [3]: > 100 µM | TGI [4]: 35 µM | TGI [5]: > 100 µM | TGI [6]: > 100 µM | TGI [7]: > 100 µM | TGI [8]: > 100 µM | TGI [9]: > 100 µM | TGI [10]: > 100 µM

Cc1sc2nc3n(c(=O)c2c1C)N=CN(c1ccccc1)C3
TGI [1]: > 100 µM | TGI [2]: 79.8 µM | TGI [3]: > 100 µM | TGI [4]: > 100 µM | TGI [5]: > 100 µM | TGI [6]: > 100 µM | TGI [7]: > 100 µM | TGI [8]: > 100 µM | TGI [9]: > 100 µM | TGI [10]: > 100 µM

C/C(=N\NC(=S)NC(C)C)c1nc2ncccc2[nH]1
TGI [1]: > 100 µM | TGI [2]: 84.3 µM | TGI [3]: > 80.1 µM | TGI [4]: > 100 µM | TGI [5]: > 100 µM | TGI [6]: > 100 µM | TGI [7]: > 100 µM | TGI [8]: > 100 µM | TGI [9]: > 100 µM | TGI [10]: 98.7 µM

CCOC(=O)CCC(NC(=O)c1ccc(OCc2nc3cc(C(F)(F)F)ccc3nc2-c2ccccc2)cc1)C(=O)OCC (stereo unspecified)
TGI [1]: 32.3 µM | TGI [2]: > 100 µM | TGI [3]: > 100 µM | TGI [4]: > 100 µM | TGI [5]: > 100 µM | TGI [6]: > 100 µM | TGI [7]: > 100 µM | TGI [8]: > 100 µM | TGI [9]: > 100 µM | TGI [10]: > 100 µM

CC[C@@H]1CC[C@@H]2[C@H](CC[C@]3(C)[C@@H](O)CC[C@@H]23)[C@H]1C(=O)O
TGI [1]: > 100 µM | TGI [2]: > 100 µM | TGI [3]: > 100 µM | TGI [4]: > 100 µM | TGI [5]: > 100 µM | TGI [6]: > 100 µM | TGI [7]: > 100 µM | TGI [8]: > 100 µM | TGI [9]: > 100 µM | TGI [10]: > 100 µM
